Molecular target: HPAO-1 (Ogataea angusta, UniProt P12807)
Assay: phenylhydrazone formation, absorbance
Type: binding
Details: covalent; adduct with TPQ cofactor

HPAO-1, sequence (P12807 whole entry): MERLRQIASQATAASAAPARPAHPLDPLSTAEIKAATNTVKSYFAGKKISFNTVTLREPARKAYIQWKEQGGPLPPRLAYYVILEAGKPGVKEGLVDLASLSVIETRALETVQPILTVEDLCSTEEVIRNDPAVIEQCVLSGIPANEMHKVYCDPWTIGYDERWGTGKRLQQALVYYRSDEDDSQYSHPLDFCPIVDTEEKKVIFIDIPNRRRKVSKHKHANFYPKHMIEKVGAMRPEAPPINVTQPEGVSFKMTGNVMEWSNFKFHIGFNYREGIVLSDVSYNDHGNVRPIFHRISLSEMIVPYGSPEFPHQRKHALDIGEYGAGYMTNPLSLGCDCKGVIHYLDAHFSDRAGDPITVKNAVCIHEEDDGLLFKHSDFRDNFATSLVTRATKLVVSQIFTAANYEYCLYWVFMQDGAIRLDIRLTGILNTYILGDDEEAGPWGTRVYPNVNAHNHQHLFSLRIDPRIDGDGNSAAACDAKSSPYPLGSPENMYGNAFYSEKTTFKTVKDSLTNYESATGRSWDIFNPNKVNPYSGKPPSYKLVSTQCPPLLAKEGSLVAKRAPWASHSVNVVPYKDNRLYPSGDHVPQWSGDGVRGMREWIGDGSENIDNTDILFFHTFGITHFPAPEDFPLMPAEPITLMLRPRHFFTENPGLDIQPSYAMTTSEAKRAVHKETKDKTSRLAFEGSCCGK

## NNc1ccccc1 [phenylhydrazine]
  rate of phenylhydrazone formation: 0.0078 ± 0.0007 s⁻¹

Reference: publication PMC2851405 (Biochemistry, 2010)
